Results published in paper PMC9460261, “Need for a Standardized Translational Drug Development Platform: Lessons Learned from the Repurposing of Drugs for COVID-19” (Microorganisms, 2022).
Counter-ions that a name gives are not always drawn. Like-named read-outs stand apart in the source and are kept apart here.

Assays:
[1] = test system: SARS-CoV-2 in Human Airway Epithelia (HAE)
[2] = test system: SARS-CoV-2 in A549-Dual hACE2-TMPRSS2 cells; assay: microbe, parasite or virus in culture; conditions: Severe acute respiratory syndrome coronavirus 2, read-out: A549-Dual hACE2-TMPRSS2 cells Average EC50
[3] = test system: SARS-CoV-2 in A549-Dual hACE2-TMPRSS2 cells; conditions: for EC50: read-out: A549-Dual hACE2-TMPRSS2 cells Average EC50

Compound | Activity Ex Vivo Human Airway Epithelia (HAE) [1] | EC50 [2] [µM] | Activity In Vitro; Potency EC50 or IC50 < 10 µM; A549 Cells [3] | Concentration showing activity / complete inhibition of viral replication in HAE [1] [µM] | Toxicity observed (^T), A549 Cells [3] | EC50 [3] [µM] | A549-Dual hACE2-TMPRSS2 cells Average EC50 [3]
Nc1c(Br)cc(Br)cc1CN[C@H]1CC[C@H](O)CC1 [Ambroxol, ambroxol] | No | > 50 | No (Potency EC50 or IC50 < 10 µM) |  |  |  | 
CCN(CC)Cc1cc(Nc2ccnc3cc(Cl)ccc23)ccc1O [Amodiaquine, amodiaquine] | No | > 50 | No (Potency EC50 or IC50 < 10 µM) |  |  |  | 
COC(=O)N[C@H](C(=O)N[C@@H](Cc1ccccc1)[C@@H](O)CN(Cc1ccc(-c2ccccn2)cc1)NC(=O)[C@@H](NC(=O)OC)C(C)(C)C)C(C)(C)C [Atazanavir, atazanavir] |  | 24 |  |  |  |  | 
CN(C)C(=O)COC(=O)Cc1ccc(OC(=O)c2ccc(NC(=N)N)cc2)cc1 [Camostat mesylate, camostat mesylate] | Yes | > 50 | No (Potency EC50 or IC50 < 10 µM) | 10 |  |  | 
COc1ccc2cc1Oc1ccc(cc1)C[C@H]1c3c(cc4c(c3Oc3cc5c(cc3OC)CCN(C)[C@@H]5C2)OCO4)CCN1C [Cepharanthine, cepharanthine] | No | > 50 | No (Potency EC50 or IC50 < 10 µM) |  |  |  | 
CC(C)/N=c1\cc2n(-c3ccc(Cl)cc3)c3ccccc3nc-2cc1Nc1ccc(Cl)cc1 [Clofazimine, clofazimine] | No | 2.4 | Yes (Potency EC50 or IC50 < 10 µM) |  | Yes ^T |  | 
COc1cc2c(c(OC)c1OC)-c1ccc(OC)c(=O)cc1[C@@H](NC(C)=O)CC2 [Colchicine, colchicine] | No |  | Yes ^T (key: Yes: Potency EC50 or IC50 < 10 µM; No: Potency EC50 or IC50 < 10 µM) |  |  |  | 
COC(=O)N[C@H](C(=O)N1CCC[C@H]1c1nc(-c2ccc(-c3ccc(-c4c[nH]c([C@@H]5CCCN5C(=O)[C@@H](NC(=O)OC)C(C)C)n4)cc3)cc2)c[nH]1)C(C)C [Daclatasvir, daclatasvir] | No | > 50 | No (Potency EC50 or IC50 < 10 µM) |  |  |  | 
O=c1nc(NO)ccn1[C@@H]1O[C@H](CO)[C@@H](O)[C@H]1O [EIDD-1931] |  |  |  |  |  | 0.47 | 
NC(=O)c1nc(F)c[nH]c1=O [Favipiravir, favipiravir] | No | > 100 | No (Potency EC50 or IC50 < 10 µM) |  |  |  | 
CNCCC(Oc1ccc(C(F)(F)F)cc1)c1ccccc1 (stereo not drawn) [Fluoxetine, fluoxetine] | No |  | No (key: Yes: Potency EC50 or IC50 < 10 µM; No: Potency EC50 or IC50 < 10 µM) |  |  |  | 
COCCCC/C(=N\OCCN)c1ccc(C(F)(F)F)cc1 [Fluvoxamine maleate, fluvoxamine maleate] | No | 39.9 | No (key: Yes: Potency EC50 or IC50 < 10 µM; No: Potency EC50 or IC50 < 10 µM) |  |  |  | 
OC(c1cc(C(F)(F)F)nc2c(C(F)(F)F)cccc12)C1CCCCN1 (stereo not drawn) [Mefloquine, mefloquine] | No | > 50 | No (Potency EC50 or IC50 < 10 µM) |  |  |  | 
CC(C)C(=O)OC[C@H]1O[C@@H](n2ccc(NO)nc2=O)[C@H](O)[C@@H]1O [Molnupiravir, molnupiravir] | Yes | 3.6 | Yes (Potency EC50 or IC50 < 10 µM) | 10 |  |  | 
Cc1c(O)cccc1C(=O)N[C@@H](CSc1ccccc1)[C@H](O)CN1C[C@H]2CCCC[C@H]2C[C@H]1C(=O)NC(C)(C)C [Nelfinavir, nelfinavir] | Yes | 3.2 | Yes (Potency EC50 or IC50 < 10 µM) | 10 | Yes ^T |  | 
CC(C)(C)[C@H](NC(=O)C(F)(F)F)C(=O)N1C[C@H]2[C@@H]([C@H]1C(=O)N[C@H](C#N)C[C@@H]1CCNC1=O)C2(C)C [Nirmatrelvir, nirmatrelvir] | Yes |  | Yes (Potency EC50 or IC50 < 10 µM) | 1 |  |  | 
CC(=O)Oc1ccccc1C(=O)Nc1ncc([N+](=O)[O-])s1 [Nitazoxanide, nitazoxanide] |  | > 100 | No (Potency EC50 or IC50 < 10 µM) | 5 |  |  | 
CC(=O)CCCCn1c(=O)c2c(ncn2C)n(C)c1=O [Pentoxyfilline, pentoxyfilline] | No | > 50 | No (Potency EC50 or IC50 < 10 µM) |  |  |  | 
CCCN(CCC)S(=O)(=O)c1ccc(C(=O)O)cc1 [Probenecid, probenecid] | No | > 50 | No (Potency EC50 or IC50 < 10 µM) |  |  |  | 
CC1(C)C(=O)N(c2ccc(C#N)c(C(F)(F)F)c2F)C(=S)N1c1ccc(CCCc2ncco2)nc1 [Proxalutamide, proxalutamide] | No |  | No (Potency EC50 or IC50 < 10 µM) |  |  | > 50 | 
CC(C)OC(=O)[C@H](C)N[P@](=O)(OC[C@H]1O[C@@H](n2ccc(=O)[nH]c2=O)[C@](C)(F)[C@@H]1O)Oc1ccccc1 [Sofosbuvir, sofosbuvir] | No | > 50 | No (Potency EC50 or IC50 < 10 µM) |  |  |  | 
O=C(Nc1ncc([N+](=O)[O-])s1)c1ccccc1O [Tizoxanide, tizoxanide] |  | > 100 |  |  |  |  | 
bemnifosbuvir | No |  | No (Potency EC50 or IC50 < 10 µM) |  |  | > 50 | 
ivermectin | Yes |  | Yes (Potency EC50 or IC50 < 10 µM) |  |  |  | +NA
